From PMC5410595, “In Vitro and In Silico Antidiabetic and Antimicrobial Evaluation of Constituents from Kickxia ramosissima (Nanorrhinum ramosissimum)” (Frontiers in Pharmacology, 2017)
“Also recorded” adds a separate entry of the source. Where two headings read alike, the source gives them in different places.

Columns and labels:
Format in all cases: biochemical
[1] = system: formation of AGEs (BSA-MGO); test: BSA-MGO antiglycation assay; conditions: for Protein glycation BSA-MGO % inhibition: isolated constituents, highest test concentration; for IC50: read-out: Protein glycation BSA-MGO IC50
Procedure: The BSA-glucose and BSA-MGO antiglycation assays were performed as reported before ([Amin et al., 2016]). The test protocol is attached as Supplementary Material ([Amin et al., 2016]).
60 Protein-glyoxal interaction (BSA-MGO assay)
61 The antiglycation assay using methylgloxyl (MGO) was performed according to the method
62 developed by Peng et al. (2007) with slight modifications. Briefly, methylglyoxal (135 μL, 5.75
63 mM) was incubated with BSA (135 μL, 10 mg/mL) dissolved in phosphate buffer (50 mM, pH
64 7.4, containing sodium azide (0.02%), added to prevent bacterial growth) and test compounds
65 (30 μL) at different final concentrations (1.5 – 0.023 mM) in 100% DMSO. The reaction
66 mixture was incubated at 37 °C for one week. Control solutions only contained methylglyoxal
67 (135 μL, 5.75 mM) BSA (135 μL, 1 0mg/mL) and DMSO (100%) only. The blank samples of
68 similar composition were also prepared simultaneously and kept at 4 °C for one week. The
70 440) due to formation of AGEs was monitored by spectrofluorometry (Tecan® Infinite M200,
71 Giessen, The Netherlands). Aminoguanidine (3-0.046 mM final concentration) was used as
72 reference compound. The AGEs inhibition was calculated as
74 % AGEs inhibition = [1–(S–Sb)/(C–Cb)] x 100
76 where S and C were fluorescence of test samples (in DMSO) and control (test mixtures
77 containing only DMSO) incubated at 37 °C, and where Sb and Cb were fluorescence for
78 samples incubated at 4 °C.
79 using Sigma plot® 13.0.

[2] = target: T1, α-glucosidase from Saccharomyces cerevisiae (Saccharomyces cerevisiae, UniProt P53341); test: α-glucosidase inhibition assay; parameters: inhibition: dose or concentration left out as unconfirmed; conditions: for inhibition: read-out: α-glucosidase % inhibition; for α-glucosidase % inhibition: at the highest test concentration of 2 mM
T1 construct: purchased Sigma-Aldrich
Procedure: The α-glucosidase assay was carried out according as reported before ([Amin et al., 2016]). The test protocol is attached as Supplementary Material ([Amin et al., 2016]).
81 Inhibition of α-glucosidase.
82 α-Glucosidase inhibitory activity was assayed according to method adopted by Choudhary et al.
83 (2010) with some modifications. Briefly, 50 µL of a solution of α-glucosidase from
84 Saccharomyces cerevisiae (0.2 U/mL in 0.1 M phosphate buffer at pH 6.8, Sigma-Aldrich, St.
85 Louis, MO, USA) was incubated with 20 μL of test compounds or extracts at different
86 concentrations (ranging from 6 mM – 0.372 mM in 25% DMSO for isolated constituents or
87 from 5 mg to 0.039 mg/mL for extracts) at 37 °C for 10 min. Then 50 μl of the substrate,
88 p-nitrophenyl-α-D-glucopyranoside (0.7 mM stock, final concentration 0.29 mM) was added to
89 the reaction mixture and incubated again for 30 min at 37 °C. […]
91 from 834 µg to 6.5 µg/mL for extracts. The reaction was stopped by adding Na2CO3 (100 μl,
92 200 mM stock) solution and the absorbance was measured at 400 nm. Final DMSO
93 concentration remained below 7.5% during the assay.
94 concentration) was used as reference compound.
96 The % inhibition was calculated using the following formula:
98 % Inhibition = 100 – [OD (test sample) / OD (control)] × 100
100 Alpha-glucosidase inhibition was categorized as mild (1-25%), moderate (26-50%), high

[3] = target: T2, 15-LOX from soybean (Glycine max, UniProt P08170); test: 15-lipoxygenase inhibition assay
T2 sequence (P08170 1-839): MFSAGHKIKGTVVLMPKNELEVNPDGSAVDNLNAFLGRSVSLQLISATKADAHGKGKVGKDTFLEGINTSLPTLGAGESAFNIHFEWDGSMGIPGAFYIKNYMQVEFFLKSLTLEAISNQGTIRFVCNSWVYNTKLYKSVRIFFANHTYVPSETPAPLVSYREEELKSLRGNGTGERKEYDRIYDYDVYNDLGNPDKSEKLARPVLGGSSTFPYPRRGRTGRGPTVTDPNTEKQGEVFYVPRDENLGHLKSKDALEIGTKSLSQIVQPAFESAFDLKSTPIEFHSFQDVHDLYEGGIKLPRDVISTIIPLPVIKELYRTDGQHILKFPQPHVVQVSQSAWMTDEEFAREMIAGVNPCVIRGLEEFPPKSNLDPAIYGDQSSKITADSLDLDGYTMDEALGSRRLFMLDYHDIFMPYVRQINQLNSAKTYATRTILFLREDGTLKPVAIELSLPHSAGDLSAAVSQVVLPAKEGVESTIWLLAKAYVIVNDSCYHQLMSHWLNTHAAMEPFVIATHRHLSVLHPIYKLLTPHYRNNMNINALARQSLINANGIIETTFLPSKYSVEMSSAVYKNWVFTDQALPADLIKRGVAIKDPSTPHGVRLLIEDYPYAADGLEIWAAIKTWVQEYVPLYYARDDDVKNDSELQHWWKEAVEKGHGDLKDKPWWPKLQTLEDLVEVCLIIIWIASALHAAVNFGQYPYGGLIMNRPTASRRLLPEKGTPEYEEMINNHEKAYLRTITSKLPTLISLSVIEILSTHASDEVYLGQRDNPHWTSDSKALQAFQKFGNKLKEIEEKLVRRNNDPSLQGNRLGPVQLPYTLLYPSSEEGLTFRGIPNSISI
Procedure: The soybean LOX assay is used as an indication of anti-inflammatory activity ([Muller, 1994]), and therefore during the present investigation, 15-LOX from soybean was used for peroxidation of linoleic acid, and inhibition was measured as described previously with slight modifications ([Malterud and Rydland, 2000]). Briefly, 12.5 μL (2–0.062 mM) of sample was dissolved in DMSO, and added to 487.5 μL of enzyme solution (200 U/mL). The mixture was incubated at room temperature for 5 min. Absorbance was recorded immediately after the addition of 500 μL of substrate (250 μM linoleic acid in 0.2 M borate buffer, pH 9) every minute up to 5 min at 234 nm.
% inhibition of enzyme activity was calculated as,
%inhibition of enzyme activity=([ΔA1/Δt]−[ΔA2/Δt])/(ΔA1/Δt)×100
where ΔA1/Δt and ΔA2/Δt are the increase rate in absorbance at 234 nm for sample without test substance and with test substance, respectively.

[4] = at the highest test concentration

T1 sequence (P53341 whole entry): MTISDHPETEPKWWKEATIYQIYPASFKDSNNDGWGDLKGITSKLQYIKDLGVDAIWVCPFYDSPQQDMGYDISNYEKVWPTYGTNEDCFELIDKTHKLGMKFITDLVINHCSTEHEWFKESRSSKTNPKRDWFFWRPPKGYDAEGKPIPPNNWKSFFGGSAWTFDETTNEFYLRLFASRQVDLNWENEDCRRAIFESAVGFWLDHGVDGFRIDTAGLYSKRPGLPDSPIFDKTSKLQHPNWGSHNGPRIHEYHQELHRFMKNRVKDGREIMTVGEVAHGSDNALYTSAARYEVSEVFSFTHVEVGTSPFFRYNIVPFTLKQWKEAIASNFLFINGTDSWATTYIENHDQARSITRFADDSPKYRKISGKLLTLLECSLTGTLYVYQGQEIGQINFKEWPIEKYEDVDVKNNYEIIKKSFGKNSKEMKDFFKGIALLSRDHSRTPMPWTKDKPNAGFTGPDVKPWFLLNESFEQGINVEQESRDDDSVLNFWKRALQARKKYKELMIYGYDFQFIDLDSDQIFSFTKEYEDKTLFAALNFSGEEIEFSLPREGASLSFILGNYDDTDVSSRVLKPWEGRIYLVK

SMILES	Protein glycation BSA-MGO % inhibition [1]	inhibition [2] [%]	15-LOX assay % inhibition [3, 4] [%]	IC50 [1] [µM]	other results
COC(=O)c1ccc(O)cc1 [Compound 7, 4-Hydroxy benzoic acid methyl ester]	did not present any inhibition; also recorded: no activity	47	30	–	–
COc1ccc(-c2cc(=O)c3c(O)c(OC)c(O[C@@H]4O[C@H](CO[C@@H]5O[C@@H](C)[C@H](O)[C@@H](O)[C@H]5O)[C@@H](O)[C@H](O)[C@H]4O)cc3o2)cc1 [Compound 6, Pectolinarin]	–	48	–	130	IC50 ([3]; read-out: 15-LOX IC50): 250 µM
CO[C@H]1C[C@@]2(O)[C@H](O)[C@@H](O)[C@](C)(OC)[C@H]2[C@@H](OC)O1 [Compound 1, Kickxiasine]	31%	–	30	–	α-glucosidase % inhibition [2]: no activity; α-glucosidase % inhibition ([2]; listed as compound 1): did not present any activity
CC1(O)CCC2C(C(=O)O)=COC(OC3OC(CO)C(O)C(O)C3O)C21 (stereo not shown) [Compound 2, Mussaenosidic acid]	23%	15	–	–	IC50 [3]: 220 µM
COC(=O)C1=COC(OC2OC(CO)C(O)C(O)C2O)C2C1CCC2(C)O (stereo not shown) [Compound 3, Mussaenoside]	24%	9	37	–	–
COc1ccc(-c2cc(=O)c3c(O)c(OC)c(O)cc3o2)cc1 [Compound 5, Pectolinarigenin]	–	–	–	190	IC50 [2]: 230 µM; 15-LOX assay % inhibition [3]: 46%
